Data reported in patent US20140273006A1, “METHOD OF THERAPY SELECTION FOR PATIENTS WITH CANCER” (NESTEC S.A., priority 2011, published 2014).
Each block holds one molecule with its values, some of them ahead of it.

What was measured:
H1975 cells = experiment: CEER pathway profiling of H1975 cells after PI3K inhibitor, MEK inhibitor or combination treatment; format: cell-based, human; details: for levels of activated PI3K: H1975 cells treated with either PI3K inhibitor, MEK inhibitor, or combinations; for levels of other activated proteins (p-MEK, p-ERK, p-AKT, p-PRAS40, p-70S6K, and p-RPS6): H1975 cells, in response to treatment
Procedure: (§1) In one particular embodiment, the proximity assay (e.g., CEER) for detecting the activation level or status of an analyte of interest comprises: • (i) incubating the cellular extract with one or a plurality of dilution series of capture antibodies to form a plurality of captured analytes; • (ii) incubating the plurality of captured analytes with detection antibodies comprising one or a plurality of activation state-independent antibodies and one or a plurality of activation state-dependent antibodies specific for the corresponding analytes to form a plurality of detectable captured analytes, • wherein the activation state-independent antibodies are labeled with a facilitating moiety, the activation state-dependent antibodies are labeled with a first member of a signal amplification pair, and the facilitating moiety generates an oxidizing agent which channels to and reacts with the first member of the signal amplification pair; • (iii) incubating the plurality of detectable captured analytes with a second member of the signal amplification pair to generate an amplified signal; and • (iv) detecting the amplified signal generated from the first and second members of the signal amplification pair.
The levels of other downstream signaling components of the pathway were measured, including HER1, HER2, cMET, PI3K, AKT, ERK, PTEN, MEK, p70S6K, PRAS40, RPS6 and PDK. Cell lines derived from non-small cell lung cancer such as NCI-H460, NCI-H647, NCI-H1155, NCI-1299, NCI-1975, NCI-H2228, and NCI-H661 were also used. The different therapies tested included a PI3K inhibitor alone at low or high dose, a MEK inhibitor alone at low or high dose, and a PI3K inhibitor plus a MEK inhibitor together at low dose or high dose. The cells were assayed at either 4 hours after treatment or 24 hours (see, * in FIGS. 6-10) after treatment.

[1] = tested on: PI3K, HER2 and IGF1R activation; experiment: CEER pathway profile of Patient #5 samples before and after treatment; format: in vivo, human; details: Patient #5, after treatment vs baseline
Excerpt: The samples were cerebrospinal fluid (CSF), fine needle aspirate (FNA) and a biopsy.

[2] = tested on: Stage III triple negative breast cancer; experiment: Clinical response of patients with triple negative breast cancer to combination therapy; format: in vivo, human; details: Patient #4; combination therapy of Herceptin and Lapatinib
Excerpt: Patient #4 represents a patient diagnosed with Stage III triple negative breast cancer (e.g., ER-, PR-, HER2-). The patient underwent radical mastectomy.
Patient #5 represents a patient diagnosed with Stage III triple negative breast cancer (e.g., ER-, PR-, HER2-). The patient underwent radical mastectomy.

PI3K = experiment: CEER profile of FNA sample of Patient #3 after PI3K inhibitor treatment; format: in vivo, human; details: Patient #3, FNA sample after treatment; confirmed by CT scan
Procedure: In a retrospective study, a series of samples taken from patients with cancer were evaluated to determine if pathway profiling using the CEER assay is predictive of responsiveness to PI3K treatment. Samples analyzed included those from patients on a therapy time course, e.g., prior to receiving therapy, after initiating therapy, and during the course of therapy.
Following treatment with the PI3K inhibitor drug BAY806946, another sample was taken and analyzed. […] This finding was confirmed by CT scan.

cell line H460 = experiment: CEER pathway profiling of cell line H460 after PI3K inhibitor, MEK inhibitor or combination treatment; format: cell-based, human; details: PI3K inhibitor alone or in combination with a MEK inhibitor, day 8, 9, 12, 13, 4 hours or 24 hours of drug exposure
Procedure: as §1
The levels of other downstream signaling components of the pathway were measured, including HER1, HER2, cMET, PI3K, AKT, ERK, PTEN, MEK, p70S6K, PRAS40, RPS6 and PDK. […]

Calu-6 = experiment: IC50 of the PI3K inhibitor drug (GDC0941) versus activated PI3K levels, Calu-6; format: cell-based, human; details: Calu-6, two more alterations (multiple mutations and PI3K activation)
Excerpt: (§2) FIG. 13 illustrates that the CEER assay can be used to calculate the IC50 of an anti-cancer drug relative to the level of activated PI3K and other downstream components of the HER1/HER2/cMET pathway. […] In some cancer cells inhibition of PI3K activation corresponds to inhibition of activation of downstream proteins. In addition the extent of the inhibition is specific to the cell line and the inhibitor treatment.
(§3) The relationship between the IC50 of the PI3K inhibitor drug (GDC0941) and activated PI3K levels was analyzed in several cell lines. It was determined that cell lines (e.g., H1651 or H2087) with PI3K activation have low IC50. H1651 cells carry no known genetic mutations but have high EGFR expression. H2087 has NRAS and BRAF mutations. Cell lines (e.g., Calu-6) with two more alterations such as multiple mutations (e.g., MAPK mutations) and PI3K activation had high IC50 values. Thus, phospho-PI3K can be an indicator or predictor of sensitivity to PI3K inhibitors.

H2087 = experiment: IC50 of the PI3K inhibitor drug (GDC0941) versus activated PI3K levels, H2087; format: cell-based, human; details: H2087, cell line with PI3K activation
Excerpt: as §2, §3

[3] = tested on: cell lines with inactive PTEN; experiment: IC50 of the PI3K inhibitor in cell lines by PTEN status (FIG. 14); format: cell-based, human; details: cell lines with inactive PTEN (point mutation or null mutation)
Procedure: as §3

H1651 = experiment: IC50 of the PI3K inhibitor drug (GDC0941) versus activated PI3K levels, H1651; format: cell-based, human; details: H1651, cell line with PI3K activation
Excerpt: as §2, §3

PI3K-related pathways = experiment: CEER-based analysis of BCA clinical samples from patients treated with BYL719; format: in vivo, human
Procedure: CEER analysis includes normalizing the measured expression/activation levels of signaling transduction analytes against standard controls using statistical algorithms. In particular, Relative Fluorescence Unit (RFU) values are converted to Computed Units (CU), a standard functional unit of measure based on cell line controls with known levels of analyte expression. For each slide of the CEER assay, a standard curve of serial diluted cell lysate is prepared for a particular analyte-positive cell line (e.g., HER1-positive cell line is MDA-MB-468; HER2-positive cell line is SKBr3). Thus, normalized levels of each particular analyte and the degree of phosphorylation in each sample can be obtained against standard cell lines.
This example illustrates a CEER-based analysis of BCA clinical samples from patients treated with a PI3K inhibitor, BYL719 (Novartis). In particular, signaling pathway profiles from individual patients are shown to shift during the course of BYL719 treatment. Therefore, CEER-based analysis of PI3K-related pathways allows for responsive, individualized management of BYL719 treatment to improve clinical outcomes. Oncogenic receptor tyrosine kinases (HER1, HER2, HER3, cMET, IGF-1R, and cKIT) were quantified, as well as PI3K and other tyrosine kinase signaling cascade components including SHC, AKT, ERK, MEK, RSK, pRAS 40, RPS6, P70S6K, and PTEN. Levels of total protein and activated protein were measured.

Structure (SMILES): COc1cc(F)c(F)c(Nc2ccc(I)cc2F)c1NS(=O)(=O)C1(C[C@H](O)CO)CC1 [BAY869766]
levels of activated PI3K (H1975 cells): relatively similar | levels of other activated proteins (p-MEK, p-ERK, p-AKT, p-PRAS40, p-70S6K, and p-RPS6) (H1975 cells): greatly lower

Structure (SMILES): CS(=O)(=O)CCNCc1ccc(-c2ccc3ncnc(Nc4ccc(OCc5cccc(F)c5)c(Cl)c4)c3c2)o1 [Lapatinib, lapatinib]
PI3K activation as well as HER2 and IGF1R activation [1]: decreased | response to treatment [2]: responded to treatment

Structure (SMILES): COc1c(OCCCN2CCOCC2)ccc2c1N=C(NC(=O)c1cnc(N)nc1)N1CCN=C21 [BAY806946]
PI3K driven cell proliferation (PI3K): successfully inhibited

Structure (SMILES): COc1c(OCCCN2CCOCC2)ccc2c1N=C(NC(=O)c1cnc(N)nc1)N1CCN=C21.Cl.Cl [BAY841236]
levels of activated PI3K (H1975 cells): relatively similar | levels of other activated proteins (p-MEK, p-ERK, p-AKT, p-PRAS40, p-70S6K, and p-RPS6) (H1975 cells): greatly lower | activated proteins of the HER1/HER2/cMET pathway (p-PI3K, p-AKT, p-PRAS40, p-70S6K, and p-RPS6) (cell line H460): downregulated

IC50 (Calu-6): high | IC50 (H2087): low | IC50 values compared with cell lines with PTEN wild-type status [3]: higher | IC50 (H1651): low
Structure (SMILES): CS(=O)(=O)N1CCN(Cc2cc3nc(-c4cccc5[nH]ncc45)nc(N4CCOCC4)c3s2)CC1 [GDC0941]

Structure (SMILES): Cc1nc(NC(=O)N2CCC[C@H]2C(N)=O)sc1-c1ccnc(C(C)(C)C(F)(F)F)c1 [BYL719]
level of activated HER3 (PI3K-related pathways; Patient 1, Day 8 of treatment): increased | p-AKT, p-pPRAS, p-P70S6, and p-RPS6 (PI3K-related pathways; Patient 1, Day 8 of treatment): downregulation | total HER3 expression (PI3K-related pathways; Patient 1, Day 8 of treatment): increased | HER3 expression and activation (PI3K-related pathways; Patient 1, Day 28 of treatment): higher than at Day 8 | p-AKT, p-PRAS, p-P70S6 and p-RPS6 levels (PI3K-related pathways; Patient 1, Day 28 of treatment): higher than at Day 8 | activation of PRAS40 (PI3K-related pathways; Patient 1, course of treatment): initial decrease in activation of PRAS40 was observed, followed by an increase | activation of AKT (PI3K-related pathways; Patient 1, upon treatment): decreased | activation of HER3, ERK, MEK, and RSK (PI3K-related pathways; Patient 1, upon treatment): increased | p-AKT and p-PRAS (PI3K-related pathways; Patient 2, Day 8 of treatment): downregulated | p-MEK, p-ERK, and p-RSK (PI3K-related pathways; Patient 2, Day 8 of treatment): upregulated | p-AKT, p-PRAS, p-MEK, p-ERK, and p-RSK (PI3K-related pathways; Patient 2, Day 28): down-regulated | activation of ERK, MEK, and RSK (PI3K-related pathways; Patient 2, course of treatment): initial increase, followed by a decrease | activation of AKT and PRAS40 (PI3K-related pathways; Patient 2, upon treatment): decrease | activated HER1 (PI3K-related pathways; Patient 3, Day 8): upregulated | activated HER2, HER3 and cMET (PI3K-related pathways; Patient 3, Day 8): down-regulated | levels of p-AKT, p-PRAS, p-MEK, p-ERK and p-RSK (PI3K-related pathways; Patient 3, Day 8): downregulated | RTK activation (PI3K-related pathways; Patient 3, upon treatment): general decrease | PRAS40 activation (PI3K-related pathways; Patient 4): decrease | p-AKT, p-PRAS, p-MEK, p-ERK, and p-RSK (PI3K-related pathways; Patient 4, Day 8): downregulation | PRAS40 activation (PI3K-related pathways; Patient 5): decrease | p-MEK, p-ERK and p-RSK levels (PI3K-related pathways; Patient 5, Day 8 of therapy): Little change | P-AKT and p-RAS (PI3K-related pathways; Patient 5, on therapy): slightly upregulated | p-RPS6 (PI3K-related pathways; Patient 5, on therapy): highly upregulated
